{"source": "patent US10738013B2", "about": "“Eluxadoline crystalline forms and processes for their preparation” (priority 2017, dated 2020)", "key": {"Dissolution test": {"assay": "Dissolution test", "assay_type": "physicochemical", "settings": "50 mM phosphate buffer pH=7.4, 37° C., 110 rpm", "method": "Dissolution tests were performed by means of Sotax AT7 Smart equipped with 6×800 mL volume vessels and using a 50 mM phosphate buffer pH=7.4, previously heated to 37° C. 20 mg of the sample to be tested were placed in each vessel, and stirred (with paddles) at 110 rpm for 60 minutes at 37±0.2° C. Aliquots were taken at 5, 10, 20, 30, 45 and 60 min, filtered through 0.45 μm Chromafil Xtra RC 45/25 syringe filter and analysed by UV/VIS spectrometer Perkin Elmer Lambda 35, 1 cm quartz cell (absorbance at 203 nm). pH was determined using a Mettler Toledo pH Meter FE20 equipped with a InLab®420 electrode.\nA portion of the product was subjected to a dissolution test in 50 mM phosphate buffer at pH=7.4 giving the results summarised below: […]"}, "[1]": {"assay": "Thermal (polymorphic) stability at 120° C. by XRPD", "assay_type": "physicochemical", "settings": "maintained at 120° C. for 24 or 48 hours, cooled to room temperature", "method": "By “polymorphically stable” it is meant that the crystalline Form α′ of the present invention when stored under stressed conditions i.e., up to a temperature of 120° C. for 24 or 48 hours, show no signs of crystallinity associated to other polymorphs of eluxadoline (e.g. Form β) as judged by the absence of their relevant peaks in an X-ray powder diffractogram (XRPD).\nAnalyses were performed on a Bruker AXS D8 Advance diffractometer (40 kV, 40 mA, λ=1.5418 Å), equipped with a linear Lynxeye position sensitive detector, set at 300 mm from the sample (Ni-filtered Cu-Kα1,2 radiation). Data collection was made in coupled mode and in theta-theta configuration, in the 3-30° 2-theta, sampling with a 0.02° step scan. Samples were gently ground in an agate mortar, and then deposited in the 0.2 mm-deep hollow of a silicon monocrystal zero background plate.\nThe polymorphically and chemically stable form α′ of eluxadoline, prepared as described in Examples 10 to 12, were maintained at 120° C. for 24 or 48 hours."}}, "data": [{"molecule": "COc1ccc(CN(C(=O)[C@@H](N)Cc2c(C)cc(C(N)=O)cc2C)[C@@H](C)c2nc(-c3ccccc3)c[nH]2)cc1C(=O)O", "note": "[form α′, 5-({[(2S)-2-amino-3-(4-carbamoyl-2,6-dimethylphenyl)propanoyl][(1S)-1-(4-phenyl-1H-imidazol-2-yl)ethyl]amino}methyl)-2-methoxybenzoic acid]", "values": [{"measurement": "% dissolved", "setting": "Dissolution test; 5 min", "value": 6.06, "unit": "%"}, {"measurement": "% dissolved", "setting": "Dissolution test; 10 min", "value": 13.93, "unit": "%"}, {"measurement": "% dissolved", "setting": "Dissolution test; 20 min", "value": 17.81, "unit": "%"}, {"measurement": "% dissolved", "setting": "Dissolution test; 30 min", "value": 27.87, "unit": "%"}, {"measurement": "% dissolved", "setting": "Dissolution test; 45 min", "value": 38.40, "unit": "%"}, {"measurement": "% dissolved", "setting": "Dissolution test; 60 min", "value": 60.17, "unit": "%"}, {"measurement": "XRPD after thermal stress (polymorphic stability)", "setting": "[1]", "value": "XRPD spectrum corresponding to the one obtained in example 10"}]}]}
